From patent US6617325B1, “Biphenyl derivatives, production thereof and uses as medicines” (Boehringer Ingelheim Pharma KG, priority 1999, dated 2003)

CCC(CCCN1CCC(NC(=O)c2ccccc2-c2ccc(C(F)(F)F)cc2)CC1)(CC(=O)OC)c1ccccc1 (stereo not shown) [Example 2, Methyl 2-ethyl-2-phenyl-5-{4-[(4′-trifluoromethyl-biphenyl-2-carbonyl)-amino]-piperidin-1-yl}-pentanecarboxylate]
melting point: 110 °C
